Assays:
CETP [1] = target: T1, CETP (Homo sapiens, UniProt P11597); assay: Assay of CETP inhibition using purified components (reconstituted buffer assay): transfer of [3H]CE from HDL to LDL; type: biochemical; design: made in house; host or cells: CHO cells (serum-free conditioned medium); conditions: 2 hours at 37°C
T1 sequence (P11597 18-493): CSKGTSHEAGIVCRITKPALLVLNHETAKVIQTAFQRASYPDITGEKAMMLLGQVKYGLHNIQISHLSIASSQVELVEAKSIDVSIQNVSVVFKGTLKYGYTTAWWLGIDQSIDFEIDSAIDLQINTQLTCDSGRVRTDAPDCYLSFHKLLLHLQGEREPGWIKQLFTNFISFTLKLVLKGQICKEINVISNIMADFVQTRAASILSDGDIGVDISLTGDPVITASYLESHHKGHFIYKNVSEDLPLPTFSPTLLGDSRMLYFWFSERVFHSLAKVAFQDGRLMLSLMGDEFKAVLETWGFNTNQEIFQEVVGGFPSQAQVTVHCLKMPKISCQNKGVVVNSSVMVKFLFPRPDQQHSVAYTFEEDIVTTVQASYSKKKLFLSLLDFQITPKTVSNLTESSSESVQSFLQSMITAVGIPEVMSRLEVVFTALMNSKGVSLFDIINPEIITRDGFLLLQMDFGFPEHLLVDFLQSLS
Method: ASSAY OF CETP INHIBITION USING PURIFIED COMPONENTS (RECONSTITUTED BUFFER ASSAY)
The ability of compounds to inhibit CETP activity was assessed using an in vitro assay that measured the rate of transfer of radiolabeled cholesteryl ester ([^3H]CE) from HDL donor particles to LDL acceptor particles. Details of the assay are provided by Glenn, K. C. et al. (Glenn and Melton, "Quantification of Cholesteryl Ester Transfer Protein (CETP): A) CETP Activity and B) Immunochemical Assay of CETP Protein," Meth. Enzymol., 263, 339-351 (1996)). Human recombinant CETP can be obtained from the serum-free conditioned medium of CHO cells transfected with a cDNA for CETP and purified as described by Wang, S. et al. (J. Biol. Chem. 267, 17487-17490 (1992)). To measure CETP activity, [^3H]CE-labeled-HDL, LDL, CETP and assay buffer (50 mM tris(hydroxymethyl)aminomethane, pH 7.4; 150 mM sodium chloride; 2 mM ethylenediamine-tetraacetic acid (EDTA); 1% bovine serum albumin) were incubated in a final volume of 200 µL, for 2 hours at 37°C in 96 well plates. […] The inhibitors were then diluted 1:1 with CETP in assay buffer, and then 25 µL of that solution was mixed with 175 µL of lipoprotein pool for assay. Following incubation, LDL was differentially precipitated by the addition of 50 µL of 1% (w/v) dextran sulfate/0.5 M magnesium chloride, mixed by vortex, and incubated at room temperature for 10 minutes. A potion of the solution (200 µL) was transferred to a filter plate (Millipore). After filtration, the radioactivity present in the precipitated LDL was measured by liquid scintillation counting.
This value was defined as the IC50.

CETP [2] = target: T1, CETP; assay: Assay of CETP inhibition in human plasma: transfer of [3H]CE from [3H]CE-HDL to VLDL and LDL; type: biochemical; design: Blood was obtained from healthy volunteers; from tissue; host or cells: pooled human EDTA plasma from healthy volunteers; conditions: inhibition of transfer of [3H]CE from [3H]CE-HDL to VLDL and LDL
Method: ASSAY OF CETP INHIBITION IN HUMAN PLASMA
Blood was obtained from healthy volunteers, recruited from the personnel of Monsanto Company, Saint Louis, MO. Blood was collected in tubes containing EDTA (EDTA plasma pool). The EDTA human plasma pool, previously stored at -20 °C, was thawed at room temperature and centrifuged for 5 minutes to remove any particulate matter. […] Equal volumes (396 µL) of the plasma containing the [^3H]CE-HDL were added by pipette into micro tubes (Titertube®, Bio-Rad laboratories, Hercules, CA). Inhibitor compounds, dissolved as 20-50 mM stock solutions in DMSO, were serially diluted in DMSO (or an alternative solvent in some cases, such as dimethylformamide or ethanol). Four µL of each of the serial dilutions of inhibitor compounds or DMSO alone were then added to each of the tubes containing plasma (396 µL). After mixing, triplicate aliquots (100 µL) from each plasma tube were then transferred to wells of 96-well roundbottomed polystyrene microtiter plates (Corning, Corning, NY). Plates were sealed with plastic film and incubated at 37 °C for 4 hours. "Test" samples contained plasma with dilutions of inhibitor compounds. "Control" samples contained plasma with DMSO diluted to the same concentration as the test samples, but without inhibitor. "Blank" samples were prepared as "control" samples, but were left in the micro tubes at 4 °C for the 4 hour incubation and were then added to the microtiter wells at the end of the incubation period. VLDL and LDL were precipitated by the addition of 10 µL of precipitating reagent (1% (w/v) dextran sulfate (Dextralip50)/0.5 M magnesium chloride, pH 7.4) to all wells. The wells were mixed on a plate mixer and then incubated at ambient temperature for 10 min. The plates were then centrifuged at 1000 x g for 30 min at 10 °C. The supernatants (50 µL) from each well were then transferred to Picoplate™ 96 plate wells (Packard, Meriden. CT) containing Microscint™-40 (Packard, Meriden, CT). The plates were heat-sealed (TopSeal™-P, Packard, Meriden, CT) according to the manufacturer's directions and mixed for 30 min. Radioactivity was measured on a microplate scintillation counter (TopCount. Packard, Meriden, CT). The maximum percentage transfer in the control wells (% transfer) was determined using the following equation: % Transfer = ([dpmblank -dpmcontrol ] × 100)/(dpmblank) [formula]
The percentage of transfer relative to the control (% control) was determined in the wells containing inhibitor compounds was determined as follows: % Control = ([dpmblank -dpmtest ] × 100)/(dpmblank -dpmcontrol) [formula]
IC50 values were then calculated from plots of % control versus concentration of inhibitor compound. […]

With `OC(CN(Cc1cccc(OC(F)(F)C(F)F)c1)c1cccc(Oc2ccc(OC(F)(F)F)cc2)c1)C(F)(F)F` (centres unmarked) [compound 658] the IC50 (CETP [1]) was 0.44 µM and the IC50 (CETP [2]) was 30 µM.

`OC(CN(Cc1ccc(OC(F)(F)F)cc1)c1cccc(OC(F)(F)F)c1)C(F)(F)F` (centres unmarked) [compound 60] showed an IC50 (CETP [1]) of 5.5 µM and an IC50 (CETP [2]) of 120 µM.

Molecule `CCCc1ccc(Oc2cccc(N(Cc3cccc(OC(F)(F)C(F)F)c3)CC(O)C(F)(F)F)c2)cc1` (centres unmarked) [compound 266] has an IC50 (CETP [2]) of 21 µM.

For `CCC(C)Oc1cccc(CN(CC(O)C(F)(F)F)c2cccc(Oc3ccc(F)cc3)c2)c1` (centres unmarked) [compound 650], the IC50 (CETP [1]) was 0.41 µM and the IC50 (CETP [2]) was 30 µM.

`OC(CN(Cc1cccc(OC(F)(F)C(F)F)c1)c1cccc(Oc2ccc(F)cc2F)c1)C(F)(F)F` (centres unmarked) [compound 639] was tested, and the IC50 (CETP [1]) was 0.21 µM and the IC50 (CETP [2]) was 5 µM.

For `OC(CN(Cc1ccc(Cl)s1)c1cccc(OC(F)(F)F)c1)C(F)(F)F` (centres unmarked) [compound 346], the IC50 (CETP [1]) was 7.7 µM and the IC50 (CETP [2]) was over 100 µM.

For `OC(CN(Cc1cccc(OC(F)(F)C(F)F)c1)c1cccc(N2CCC3(CC2)OCCO3)c1)C(F)(F)F` (centres unmarked) [compound 317], the IC50 (CETP [1]) was 3.4 µM and the IC50 (CETP [2]) was over 100 µM.

Molecule `CCCCOc1cccc(CN(CC(O)C(F)(F)F)c2cccc(Oc3ccc(F)cc3)c2)c1` (centres unmarked) [compound 649] has an IC50 (CETP [1]) of 4.9 µM and an IC50 (CETP [2]) of over 100 µM.

`Cc1ccc(Oc2cccc(N(Cc3cccc(OC(F)(F)C(F)F)c3)CC(O)C(F)(F)F)c2)cn1` (centres unmarked) [compound 282] was tested, and the IC50 (CETP [1]) was 0.84 µM and the IC50 (CETP [2]) was 12 µM.

`CC(C)Oc1cccc(CN(CC(O)C(F)(F)F)c2cccc(Oc3ccc(F)cc3)c2)c1` (centres unmarked) [compound 647] gave an IC50 (CETP [1]) of 0.52 µM and an IC50 (CETP [2]) of 13 µM.

`Cc1ccc(Oc2cccc(N(Cc3cccc(SC(F)(F)F)c3)CC(O)C(F)(F)F)c2)cc1` (centres unmarked) [compound 637] was tested, and the IC50 (CETP [1]) was 0.47 µM and the IC50 (CETP [2]) was 8 µM.

For `CC(C)c1ccc(Oc2cccc(N(Cc3cccc(OC(F)(F)C(F)F)c3)CC(O)C(F)(F)F)c2)cc1` (centres unmarked) [compound 250], the IC50 (CETP [1]) was 0.44 µM and the IC50 (CETP [2]) was 31 µM.

Work on `OC(CN(Cc1ccc(Cl)s1)c1cccc(OC(F)(F)F)c1)C(F)(F)F` (centres unmarked) [Example 321, 3-[[(5-chloro-2-thienyl)methyl][(3-trifluoromethoxy)phenyl]amino]-1,1,1-trifluoro-2-propanol] yielded an IC50 (CETP [2]) of over 100 µM.

`OC(CN(Cc1ccc(OC(F)(F)F)cc1)c1ccccc1)C(F)(F)F` (centres unmarked) [compound 59] gave an IC50 (CETP [2]) of 100 µM.

`OC(CN(Cc1cccc(OC2CCCC2)c1)c1cccc(Oc2ccc(F)cc2)c1)C(F)(F)F` (centres unmarked) [compound 653] gave an IC50 (CETP [1]) of 0.91 µM and an IC50 (CETP [2]) of 38 µM.

With `OC(CN(Cc1cccc(OC(F)(F)C(F)F)c1)c1cccc(Oc2ccc(Cl)c(Cl)c2)c1)C(F)(F)F` (centres unmarked) [compound 256] the IC50 (CETP [2]) was 7.8 µM.

Molecule `OC(CN(Cc1cccc(OC(F)(F)C(F)F)c1)c1cccc(N2CCC(Cc3ccccc3)CC2)c1)C(F)(F)F` (centres unmarked) [compound 316] has an IC50 (CETP [1]) of 3.1 µM and an IC50 (CETP [2]) of over 100 µM.

In the case of `OC(CN(Cc1cccc(SC(F)(F)F)c1)c1cc(Oc2ccc(F)cc2)cc(C(F)(F)F)c1)C(F)(F)F` (centres unmarked) [compound 642], the IC50 (CETP [1]) is reported as 1.1 µM and the IC50 (CETP [2]) is reported as 50 µM.

In the case of `OC(CN(Cc1cccc(OC(F)(F)C(F)F)c1)c1cccc(Oc2ccc(F)c(F)c2)c1)C(F)(F)F` (centres unmarked) [compound 638], the IC50 (CETP [1]) is reported as 0.26 µM and the IC50 (CETP [2]) is reported as 11 µM.

In the case of `N#Cc1ccc(Oc2cccc(N(Cc3cccc(OC(F)(F)C(F)F)c3)CC(O)C(F)(F)F)c2)cc1` (centres unmarked) [compound 657], the IC50 (CETP [1]) is reported as 1 µM and the IC50 (CETP [2]) is reported as 24 µM.

`OC(CN(Cc1cccc(OC(F)(F)C(F)F)c1)c1cccc(OCc2ccccc2)c1)C(F)(F)F` (centres unmarked) [compound 373] gave an IC50 (CETP [1]) of 0.22 µM and an IC50 (CETP [2]) of 12 µM.

`O=C(OC(CN(C(=O)c1cccc(C(F)(F)F)c1)c1cccc(F)c1)C(F)(F)F)c1cccc(C(F)(F)F)c1` (centres unmarked) [Example 662, 2,2,2-trifluoro-1-[[(3-fluorophenyl)[3-(trifluoromethyl)benzoyl]amino]-methyl]ethyl 3-trifluoromethylbenzoate] showed an IC50 (CETP [1]) of 50 µM.

`OC(CN(Cc1cccc(OC(F)(F)C(F)F)c1)c1cccc(OCc2cccc(SC(F)(F)F)c2)c1)C(F)(F)F` (centres unmarked) [compound 410] was tested, and the IC50 (CETP [1]) was 0.19 µM.

`OC(CN(Cc1cccc(F)c1)c1cccc(F)c1)C(F)(F)F` (centres unmarked) [compound 18] showed an IC50 (CETP [1]) of 60 µM.

In the case of `Cc1ccc(CN(CC(O)C(F)(F)F)c2ccc(C(F)(F)F)cc2)cc1` (centres unmarked) [compound 672], the IC50 (CETP [1]) is reported as 100 µM.

`Cc1ccc(N(Cc2cccc(C(F)(F)F)c2)CC(O)C(F)(F)F)cc1` (centres unmarked) [compound 20] gave an IC50 (CETP [1]) of over 100 µM.

`OC(CN(Cc1cccc(OC(F)(F)F)c1)c1ccccc1)C(F)(F)F` (centres unmarked) [compound 73] was tested, and the IC50 (CETP [2]) was 100 µM.
